Results reported in ChEMBL document CHEMBL1201861, “Genomics of Drug Sensitity in Cancer screening data, Wellcome Trust Sanger Institute”.

Tests used:
Test in all cases: cells
EOL1 = format: functional, cell-based, Homo sapiens; conditions: Homo sapiens, EOL1;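 further: growth inhibition of EoL-1 cells, read out by a cell viability assay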
Description: SANGER: Inhibition of human EoL-1-cell cell growth in a cell viability assay.

CTV-1 = format: functional, cell-based, Homo sapiens; conditions: Homo sapiens, CTV-1;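 further: growth inhibition of the cell line, read out with a cell viability assay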
Description: SANGER: Inhibition of human CTV-1 cell growth in a cell viability assay.

KNS-81-FD = format: functional, cell-based, Homo sapiens; conditions: Homo sapiens, KNS-81-FD;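 further: growth inhibition of KNS-81-FD cells, read out with a cell viability assay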
Description: SANGER: Inhibition of human KNS-81-FD cell growth in a cell viability assay.

J-RT3-T3-5 = format: functional, cell-based, Homo sapiens; conditions: Homo sapiens, J-RT3-T3-5;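 further: cell viability assay measuring growth inhibition of human J-RT3-T3-5 cells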
Description: SANGER: Inhibition of human J-RT3-T3-5 cell growth in a cell viability assay.

ATN-1 = format: functional, cell-based, Homo sapiens; conditions: Homo sapiens, ATN-1;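 further: growth inhibition of human ATN-1 cells, read out with a cell viability assay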
Description: SANGER: Inhibition of human ATN-1 cell growth in a cell viability assay.

EC-GI-10 = format: functional, cell-based, Homo sapiens; conditions: Homo sapiens, EC-GI-10
Description: SANGER: Inhibition of human EC-GI-10 cell growth in a cell viability assay.

MFM-223 = format: functional, cell-based, Homo sapiens; conditions: Homo sapiens, MFM-223
Description: SANGER: Inhibition of human MFM-223 cell growth in a cell viability assay.

COLO-800 = format: functional, cell-based, Homo sapiens; conditions: Homo sapiens, COLO-800;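 further: growth inhibition of COLO-800 cells, read out with a cell viability assay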
Description: SANGER: Inhibition of human COLO-800 cell growth in a cell viability assay.

ES3 = format: functional, cell-based, Homo sapiens; conditions: Homo sapiens, ES3;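 further: growth inhibition of ES3 cells, read out with a cell viability assay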
Description: SANGER: Inhibition of human ES3 cell growth in a cell viability assay.

SK-LMS-1 = format: functional, cell-based, Homo sapiens; conditions: Homo sapiens, SK-LMS-1;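 further: growth inhibition of human SK-LMS-1 cells, read out with a cell viability assay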
Description: SANGER: Inhibition of human SK-LMS-1 cell growth in a cell viability assay.

HEL = format: functional, cell-based, Homo sapiens; conditions: Homo sapiens, HEL;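 further: growth inhibition of HEL cells, read out with a cell viability assay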
Description: SANGER: Inhibition of human HEL cell growth in a cell viability assay.

HD-MY-Z = format: functional, cell-based, Homo sapiens; conditions: Homo sapiens, HD-MY-Z;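 further: growth inhibition of HD-MY-Z cells, read out with a cell viability assay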
Description: SANGER: Inhibition of human HD-MY-Z cell growth in a cell viability assay.

ES4 = format: functional, cell-based, Homo sapiens; conditions: Homo sapiens, ES4;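 further: growth inhibition of human ES4 cells, read out by a cell viability assay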
Description: SANGER: Inhibition of human ES4 cell growth in a cell viability assay.

TK-10 = format: functional, cell-based, Homo sapiens; conditions: Homo sapiens, TK-10;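 further: growth inhibition of TK-10 cells, read out in a cell viability assay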
Description: SANGER: Inhibition of human TK10 cell growth in a cell viability assay.

MOLT-16 = format: functional, cell-based, Homo sapiens; conditions: Homo sapiens, MOLT-16;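 further: growth inhibition of human MOLT-16 cells, read out with a cell viability assay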
Description: SANGER: Inhibition of human MOLT-16 cell growth in a cell viability assay.

EKVX = format: functional, cell-based, Homo sapiens; conditions: Homo sapiens, EKVX;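 further: growth inhibition of human EKVX cells, read out with a cell viability assay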
Description: SANGER: Inhibition of human EKVX cell growth in a cell viability assay.

KLE = format: functional, cell-based, Homo sapiens; conditions: Homo sapiens, KLE;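 further: growth inhibition of human KLE cells, read out with a cell viability assay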
Description: SANGER: Inhibition of human KLE cell growth in a cell viability assay.

NTERA-2-cl-D1 = format: functional, cell-based, Homo sapiens; conditions: Homo sapiens, NTERA-2-cl-D1;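 further: inhibition of cell growth, measured with a cell viability assay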
Description: SANGER: Inhibition of human NTERA-S-cl-D1 cell growth in a cell viability assay.

ES5 = format: functional, cell-based, Homo sapiens; conditions: Homo sapiens, ES5;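 further: growth inhibition of human ES5 cells, read out by a cell viability assay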
Description: SANGER: Inhibition of human ES5 cell growth in a cell viability assay.

NOS-1 = format: functional, cell-based, Homo sapiens; conditions: Homo sapiens, NOS-1;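 further: growth inhibition of the human NOS-1 cell line, read out with a cell viability assay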
Description: SANGER: Inhibition of human NOS-1 cell growth in a cell viability assay.

SK-NEP-1 = format: functional, cell-based, Homo sapiens; conditions: Homo sapiens, SK-NEP-1;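 further: growth inhibition of human SK-NEP-1 cells, read out by a cell viability assay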
Description: SANGER: Inhibition of human SK-NEP-1 cell growth in a cell viability assay.

CAS-1 = format: functional, cell-based, Homo sapiens; conditions: Homo sapiens, CAS-1;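 further: growth inhibition of CAS-1 cells, measured with a cell viability assay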
Description: SANGER: Inhibition of human CAS-1 cell growth in a cell viability assay.

SW684 = format: functional, cell-based, Homo sapiens; conditions: Homo sapiens, SW684;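 further: growth inhibition of human SW684 cells, measured by a cell viability assay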
Description: SANGER: Inhibition of human SW684 cell growth in a cell viability assay.

KS-1 = format: functional, cell-based, Homo sapiens; conditions: Homo sapiens, KS-1;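 further: growth inhibition of KS-1 cells, read out with a cell viability assay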
Description: SANGER: Inhibition of human KS-1 cell growth in a cell viability assay.

LU-139 = format: functional, cell-based, Homo sapiens; conditions: Homo sapiens, LU-139
Description: SANGER: Inhibition of human LU-139 cell growth in a cell viability assay.

KY821 = format: functional, cell-based, Homo sapiens; conditions: Homo sapiens, KY821;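 further: growth inhibition of human KY821 cells, read out by a cell viability assay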
Description: SANGER: Inhibition of human KY821 cell growth in a cell viability assay.

DSH1 = format: functional, cell-based, Homo sapiens; conditions: Homo sapiens, DSH1;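 further: growth inhibition of human DSH1 cells, measured with a cell viability readout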
Description: SANGER: Inhibition of human DSH1 cell growth in a cell viability assay.

NCI-H1838 = format: functional, cell-based, Homo sapiens; conditions: Homo sapiens, NCI-H1838;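 further: growth inhibition of NCI-H1838 cells, determined with a cell viability readout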
Description: SANGER: Inhibition of human NCI-H1838 cell growth in a cell viability assay.

LB771-HNC = format: functional, cell-based, Homo sapiens; conditions: Homo sapiens, LB771-HNC;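 further: growth inhibition of LB771-HNC human cells, read out with a cell viability assay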
Description: SANGER: Inhibition of human LB771-HNC cell growth in a cell viability assay.

NCI-H226 = format: functional, cell-based, Homo sapiens; conditions: Homo sapiens, NCI-H226;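 further: cell viability read-out used to gauge growth inhibition of the cells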
Description: SANGER: Inhibition of human NCI-H226 cell growth in a cell viability assay.

D283 Med = format: functional, cell-based, Homo sapiens; conditions: Homo sapiens, D283 Med
Description: SANGER: Inhibition of human D-283MED cell growth in a cell viability assay.

HCC2218 = format: functional, cell-based, Homo sapiens; conditions: Homo sapiens, HCC2218;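 further: cell viability assay read-out, with IC50 given as the concentration that inhibits growth of the cell line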
Description: SANGER: Inhibition of human HCC2218 cell growth in a cell viability assay.

HC-1 = format: functional, cell-based, Homo sapiens; conditions: Homo sapiens, HC-1;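 further: growth inhibition of HC-1 cells measured by a cell viability assay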
Description: SANGER: Inhibition of human HC-1 cell growth in a cell viability assay.

MV4-11 = format: functional, cell-based, Homo sapiens, MV-4-11; conditions: Homo sapiens, MV4-11;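 further: cell viability readout measuring growth inhibition of human MV-4-11 cells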
Description: SANGER: Inhibition of human MV-4-11 cell growth in a cell viability assay.

COLO-684 = format: functional, cell-based, Homo sapiens; conditions: Homo sapiens, COLO-684
Description: SANGER: Inhibition of human COLO-684 cell growth in a cell viability assay.

NCI-H69 = format: functional, cell-based, Homo sapiens; conditions: Homo sapiens, NCI-H69;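 further: growth inhibition of the cell line, read out with a cell viability assay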
Description: SANGER: Inhibition of human NCI-H69 cell growth in a cell viability assay.

LS-1034 = format: functional, cell-based, Homo sapiens; conditions: Homo sapiens, LS-1034
Description: SANGER: Inhibition of human LS-1034 cell growth in a cell viability assay.

SJSA-1 = format: functional, cell-based, Homo sapiens; conditions: Homo sapiens, SJSA-1;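 further: growth inhibition of human SJSA-1 cells, read out through a cell viability measurement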
Description: SANGER: Inhibition of human SJSA-1 cell growth in a cell viability assay.

TE-10 = format: functional, cell-based, Homo sapiens; conditions: Homo sapiens, TE-10;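 further: growth inhibition of TE-10 cells, measured by a cell viability assay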
Description: SANGER: Inhibition of human TE-10 cell growth in a cell viability assay.

KM12 = format: functional, cell-based, Homo sapiens; conditions: Homo sapiens, KM12;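 further: KM12 cell growth inhibition, read out with a cell viability assay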
Description: SANGER: Inhibition of human KM12 cell growth in a cell viability assay.

ES6 = format: functional, cell-based, Homo sapiens; conditions: Homo sapiens, ES6;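 further: growth inhibition of human ES6 cells, read out with a cell viability assay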
Description: SANGER: Inhibition of human ES6 cell growth in a cell viability assay.

NCI-H720 = format: functional, cell-based, Homo sapiens; conditions: Homo sapiens, NCI-H720;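 further: growth inhibition of human NCI-H720 cells determined by a cell viability assay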
Description: SANGER: Inhibition of human NCI-H720 cell growth in a cell viability assay.

LB373-MEL-D = format: functional, cell-based, Homo sapiens; conditions: Homo sapiens, LB373-MEL-D;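 further: growth inhibition of the cell line, read out in a cell viability assay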
Description: SANGER: Inhibition of human LB373-MEL-D cell growth in a cell viability assay.

KNS-42 = format: functional, cell-based, Homo sapiens; conditions: Homo sapiens, KNS-42;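 further: growth inhibition of KNS-42 cells, read out with a cell viability assay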
Description: SANGER: Inhibition of human KNS-42 cell growth in a cell viability assay.

HAL-01 = format: functional, cell-based, Homo sapiens; conditions: Homo sapiens, HAL-01;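 further: growth inhibition of human HAL-01 cells, read out with a cell viability assay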
Description: SANGER: Inhibition of human HAL-01 cell growth in a cell viability assay.

SNU1 = format: functional, cell-based, Homo sapiens; conditions: Homo sapiens, SNU1;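 further: growth inhibition of human NCI-SNU-1 cells, measured with a cell viability assay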
Description: SANGER: Inhibition of human NCI-SNU-1 cell growth in a cell viability assay.

LS-411N = format: functional, cell-based, Homo sapiens; conditions: Homo sapiens, LS-411N
A3-KAW = format: functional, cell-based, Homo sapiens; conditions: Homo sapiens, A3-KAW;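 further: growth inhibition of human A3-KAW cells, read out with a cell viability assay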
Description: SANGER: Inhibition of human A3-KAW cell growth in a cell viability assay.

TE-11 = format: functional, cell-based, Homo sapiens; conditions: Homo sapiens, TE-11;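 further: growth inhibition of human TE-11 cells, read out by a cell viability assay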
Description: SANGER: Inhibition of human TE-11 cell growth in a cell viability assay.

Question: Which results are given for `O=C(O)c1ccc(-c2c[nH]c3ncc(-c4ccccc4)cc23)cc1C1CCCC1` [GSK-650394]?
Answer: IC50 (EOL1): 11300 nM; IC50 (CTV-1): > 16000 nM; IC50 (KNS-81-FD): > 16000 nM; IC50 (J-RT3-T3-5): > 16000 nM; IC50 (ATN-1): > 16000 nM; IC50 (EC-GI-10): > 16000 nM; IC50 (MFM-223): > 16000 nM; IC50 (COLO-800): > 16000 nM; IC50 (ES3): > 16000 nM; IC50 (SK-LMS-1): 5380 nM; IC50 (HEL): 10700 nM; IC50 (HD-MY-Z): > 16000 nM; IC50 (ES4): 4060 nM; IC50 (TK-10): > 16000 nM; IC50 (MOLT-16): 3520 nM; IC50 (EKVX): > 16000 nM; IC50 (KLE): > 16000 nM; IC50 (NTERA-2-cl-D1): 3550 nM; IC50 (ES5): > 16000 nM; IC50 (NOS-1): > 16000 nM; IC50 (SK-NEP-1): > 16000 nM; IC50 (CAS-1): 11000 nM; IC50 (SW684): > 16000 nM; IC50 (KS-1): > 16000 nM; IC50 (LU-139): > 16000 nM; IC50 (KY821): > 16000 nM; IC50 (DSH1): > 16000 nM; IC50 (NCI-H1838): > 16000 nM; IC50 (LB771-HNC): > 16000 nM; IC50 (NCI-H226): 15600 nM; IC50 (D283 Med): > 16000 nM; IC50 (HCC2218): > 16000 nM; IC50 (HC-1): > 16000 nM; IC50 (MV4-11): 165 nM; IC50 (COLO-684): > 16000 nM; IC50 (NCI-H69): 7670 nM; IC50 (LS-1034): > 16000 nM; IC50 (SJSA-1): 15100 nM; IC50 (TE-10): 14500 nM; IC50 (KM12): 851 nM; IC50 (ES6): 8670 nM; IC50 (NCI-H720): > 16000 nM; IC50 (LB373-MEL-D): > 16000 nM; IC50 (KNS-42): > 16000 nM; IC50 (HAL-01): > 16000 nM; IC50 (SNU1): > 16000 nM; IC50 (LS-411N): 10400 nM; IC50 (A3-KAW): > 16000 nM; IC50 (TE-11): > 16000 nM

Question: Which IC50 (EOL1) does the source give for `COc1cc2ncn(-c3cc(OCc4ccccc4C(F)(F)F)c(C(N)=O)s3)c2cc1OC` [GW843682X] here?
Answer: 42.3 nM

Question: What about the IC50 (CTV-1) of the same molecule?
Answer: 30.4 nM

Question: And the IC50 (KNS-81-FD)?
Answer: > 256 nM

Question: What about the IC50 (J-RT3-T3-5) of the same molecule?
Answer: 21.2 nM

Question: What about the IC50 (ATN-1) of the same molecule?
Answer: 24.1 nM

Question: And the IC50 (EC-GI-10)?
Answer: > 256 nM

Question: And the IC50 (MFM-223)?
Answer: > 256 nM

Question: And the IC50 (COLO-800)?
Answer: > 256 nM

Question: What about the IC50 (ES3) of the same molecule?
Answer: > 256 nM

Question: What about the IC50 (SK-LMS-1) of the same molecule?
Answer: 73.4 nM

Question: What about the IC50 (HEL) of the same molecule?
Answer: 27.5 nM

Question: What about the IC50 (HD-MY-Z) of the same molecule?
Answer: 66.3 nM

Question: And the IC50 (ES4)?
Answer: 18.4 nM

Question: And the IC50 (TK-10)?
Answer: 90.9 nM

Question: And the IC50 (MOLT-16)?
Answer: 31.5 nM

Question: And the IC50 (EKVX)?
Answer: > 256 nM

Question: What about the IC50 (KLE) of the same molecule?
Answer: 213 nM

Question: What about the IC50 (NTERA-2-cl-D1) of the same molecule?
Answer: 17.4 nM

Question: And the IC50 (ES5)?
Answer: > 256 nM

Question: What about the IC50 (NOS-1) of the same molecule?
Answer: 16.6 nM

Question: And the IC50 (SK-NEP-1)?
Answer: 16.5 nM

Question: What about the IC50 (CAS-1) of the same molecule?
Answer: > 256 nM

Question: And the IC50 (SW684)?
Answer: > 256 nM

Question: What about the IC50 (KS-1) of the same molecule?
Answer: 26.6 nM

Question: What about the IC50 (LU-139) of the same molecule?
Answer: 65.6 nM

Question: What about the IC50 (KY821) of the same molecule?
Answer: 15.9 nM

Question: And the IC50 (DSH1)?
Answer: > 256 nM

Question: What about the IC50 (NCI-H1838) of the same molecule?
Answer: > 256 nM

Question: And the IC50 (LB771-HNC)?
Answer: 60 nM

Question: What about the IC50 (NCI-H226) of the same molecule?
Answer: > 256 nM

Question: And the IC50 (D283 Med)?
Answer: > 256 nM

Question: And the IC50 (HCC2218)?
Answer: > 256 nM

Question: What about the IC50 (HC-1) of the same molecule?
Answer: 26.2 nM

Question: And the IC50 (MV4-11)?
Answer: 25.9 nM

Question: What about the IC50 (COLO-684) of the same molecule?
Answer: 95.4 nM

Question: And the IC50 (NCI-H69)?
Answer: 181 nM

Question: And the IC50 (LS-1034)?
Answer: 59.7 nM

Question: What about the IC50 (SJSA-1) of the same molecule?
Answer: 32.7 nM

Question: And the IC50 (TE-10)?
Answer: 12.6 nM

Question: And the IC50 (KM12)?
Answer: 16.5 nM

Question: What about the IC50 (ES6) of the same molecule?
Answer: 6.19 nM

Question: And the IC50 (NCI-H720)?
Answer: > 256 nM

Question: What about the IC50 (LB373-MEL-D) of the same molecule?
Answer: 149 nM

Question: What about the IC50 (KNS-42) of the same molecule?
Answer: 24.7 nM

Question: What about the IC50 (HAL-01) of the same molecule?
Answer: 80.8 nM

Question: What about the IC50 (SNU1) of the same molecule?
Answer: > 256 nM

Question: And the IC50 (LS-411N)?
Answer: 8 nM

Question: What about the IC50 (A3-KAW) of the same molecule?
Answer: 51.7 nM

Question: And the IC50 (TE-11)?
Answer: 10.7 nM
